Earlier results as cited in patent publication US12239707B2, “Photodynamic compositions and methods of use” (MT RESEARCH, LLC, priority 2018, dated 2025).

Conditions: taken orally; 95% remains intraluminal

fraction of nintedanib absorbed: 5%
SMILES: COC(=O)c1ccc2c(c1)NC(=O)/C2=C(\Nc1ccc(N(C)C(=O)CN2CCN(C)CC2)cc1)c1ccccc1 [nintedanib]
